# From patent EP4775209A1 (Ascentawits Pharmaceuticals, Ltd., priority 2023, dated 2025)
# Key:
# [1] = tested on: HuPrime® liver cancer LI6664 subcutaneous xenograft PDX model; assay: Liver cancer LI6664 subcutaneous xenograft PDX efficacy model; type: in vivo, BALB/c nude mice; conditions: all AST-3424 treatment groups (0.3, 1, 1.25 mg/kg)
# [2] = tested on: human lung cancer (H460-GFP) subcutaneous CDX model; assay: Human lung cancer CDX efficacy model (QW×2 regimen); type: in vivo, nude mice; conditions: QW×2, QW×2, I.V., P<0.01
# Description: Images of tumor burden in mice were non-invasively collected twice a week by a Fluor Vivo Model 100 imaging system, and the mean value of tumor area in each group was calculated based on imaging analysis results. […] The data from this experiment are the data for the H460 model in Example 3-1 of the aforementioned Patent Application 2 (see Table 5 and Figure 5 of this application).
# [3] = tested on: human liver cancer (HepG2-GFP) orthotopic CDX model; assay: Human liver cancer orthotopic CDX efficacy model (QW×2 regimen); type: in vivo, nude mice; conditions: 1.25, 2.5, 5 mg/kg, QW×2, drug free one week, QW×2, I.V.; significant dose-effect relationship
# Description: The data from this experiment correspond to the data of the HepG2 model in Example 3-1 of the aforementioned Patent Application 2 (see Table 5 and Figures 4A, 4B of this application).
# [4] = GLP repeated-administration toxicity study (D1+D8/21 Days) in rats; type: in vivo, Sprague-Dawley (SD) rats; conditions: intravenous bolus on Days 1, 8, 22, 29
# Description: Rats developed test article-related, dose-dependent lesions at the injection sites and the distal ends of the tails. At the 10 mg/kg dose, there were mild and reversible changes in hematology and serum biochemistry parameters.
# [5] = GLP repeated-administration toxicity study (QD×5/21 Days) in monkeys; type: in vivo, cynomolgus monkeys; conditions: 5 cycles
# Description: In a GLP repeated-administration toxicity study in cynomolgus monkeys, AS-3424 was intravenously infused to cynomolgus monkeys at doses of 0, 0.1, 0.2, or 0.4/0.3 mg/kg over 30 minutes on Days 1-5, Days 22-26, Days 43-47, Days 64-68, and Days 85-89.
# During the trials, a decrease in #EOS (absolute eosinophil count), %EOS (% eosinophils), #RET (absolute reticulocyte count), and %RETIC (% reticulocytes) was primarily observed in the ≥0.1 mg/kg dose groups; a decrease in #NEUT, #LYMPH (lymphocyte absolute count), and %LYMPH (% lymphocyte) was also seen in the ≥ 0.2 mg/kg dose groups; and a decrease in WBC (white blood cell), HGB (hemoglobin), and HCT (hematocrit) was also seen in the 0.4/0.3 mg/kg dose group. Among them, the reduction in eosinophils was correlated with the reduction in the percentage of eosinophils in the bone marrow smears at the end of the administration period, and the decrease in lymphocytes was correlated with the reduction of lymphocytes in the thymic cortex under microscopic examination, which were considered to be secondary stress responses. All the above hematological changes were recoverable during the recovery period.
# [6] = tested on: HuPrime® pancreatic cancer PA1280 subcutaneous xenograft model; assay: Pancreatic cancer PA1280 subcutaneous xenograft efficacy model; type: in vivo, BALB/c nude mice
# Description: The drug was administered via tail vein injection once weekly for a total of three weeks, followed by one week of observation.
# [7] = tested on: HuPrime® pancreatic cancer PA9451 subcutaneous xenograft model; assay: Pancreatic cancer PA9451 subcutaneous xenograft efficacy model; type: in vivo, BALB/c nude mice; conditions: for TGI (%): Day 36, P<0.001; for mean tumor volume: Day 36 after first administration
# [8] = tested on: HuPrime® pancreatic cancer PA1170 subcutaneous xenograft model; assay: Pancreatic cancer PA1170 subcutaneous xenograft efficacy model; type: in vivo, BALB/c nude mice; conditions: for TGI (%): Day 30, P<0.05; for mean tumor volume: Day 30 after first administration
# [9] = Phase I clinical trial of AST-3424 in China: blood pharmacokinetics compared with US data; type: in vivo, human; conditions: human, Chinese and American patients, printed as 'almost lower than', read-out: concentrations after 8 hours
# [10] = tested on: HuPrime® lung cancer LU5161 subcutaneous xenograft model
# Description: (§1) For the experimental procedures and relevant evaluation indicators of the aforementioned solid tumor animal efficacy models, please refer to Examples 7, 8, and 9 in Patent Application 1, namely PCT/US2016/062114, with Publication No. WO2017/087428 (corresponding to Chinese Application CN201680044608.1, with Publication No. CN108290911B), Examples 3 and 4 in Patent Application 2, namely PCT/CN2021/078115, with Publication No. WO2022178821, and Research Literature 1. The aforementioned non-clinical animal efficacy models (PDX) mentioned in the present application are all similar to those in the aforementioned literatures, and the specific operation procedures thereof are not described herein again.
# LU5161 is a HuPrime® xenograft model established from a lung tumor (small cell lung cancer) of a patient.
# (§2) Efficacy was evaluated based on the relative tumor growth inhibition rate (TGI, %), and safety was evaluated based on animal body weight changes and mortality.
# solid tumors = conditions: 21 patients of 39; cited from earlier work
# [11] = tested on: HuPrime® pancreatic cancer PA2637 subcutaneous xenograft model
# Description: as §1
# PA2637 is a HuPrime® xenograft model established from a pancreatic cancer tumor of a patient.
# as §2
# [12] = tested on: HuPrime® lung cancer LU5173 subcutaneous xenograft model
# Description: as §1
# The LU5173 is a HuPrime® xenograft model established from a lung cancer (small cell lung carcinoma) tumor of a patient.
# Efficacy was evaluated based on the relative tumor growth inhibition (TGI, %), and safety was evaluated based on animal body weight changes and mortality.
# [13] = cited from earlier work
# [14] = 1 mg/kg QD×5, 16 days off, QD×5
# [15] = 2 mg/kg once weekly for 2 weeks
# [16] = 1 mg/kg QD×5, 2 cycles, 6 mice per group
# [17] = 1 mg/kg QD×5, 2 cycles, no animal deaths
smiles,measurement,setting,value
C[C@H](OP(=O)(N1CC1)N1CC1)c1ccc([N+](=O)[O-])c(Oc2cccc(C(=O)N(C)C)c2)c1 [AST-3424],tolerability (body weight changes and mortality),[1],well tolerated
same,TGI,"[2]; 0.625 mg/kg, 1-week off",60.2%
same,TGI,"[2]; 1.25 mg/kg, 1 week off",67.2%
same,TGI,"[2]; 2.5 mg/kg, 1 week off",88%
same,effect on the orthotopic model of human liver cancer in mice,[3],strong inhibitory effect
same,NOAEL,"[4]; Sprague-Dawley, rat, in vivo, read-out: no-observed-adverse-effect level (NOAEL)",3 mg/kg
same,dose at which 10% of animals showed severe toxic reactions (STD10),[4],30 mg/kg
same,toxic target organs,"[5]; 0.1, 0.2, 0.4/0.3 mg/kg QD×5 per 21 days","duodenum, jejunum, colon, and cecum"
same,HNSTD,[5]; 30-minute i.v. infusion QD×5 per 21 days,0.3 mg/kg
same,tolerability (body weight changes and mortality),"[6]; 2.5 mg/kg once weekly for three weeks, no animal deaths, no apparent drug toxicity",well tolerated
same,mean tumor volume,"[6]; 2.5 mg/kg tail vein once weekly for three weeks, Day 27, vehicle 475.07",190.34 mm^3
same,TGI (%),"[7]; 0.5 mg/kg QD×5, 16 days off, QD×5",91.77%
same,mean tumor volume,"[7]; 0.5 mg/kg QD×5, 16 days off, QD×5, vehicle 661.61",54.83 mm^3
same,TGI (%),[7]; [14],92.99%
same,mean tumor volume,[7]; [14],46.05 mm^3
same,TGI (%),[7]; [15],88.53%
same,mean tumor volume,[7]; [15],76.78 mm^3
same,tolerability (body weight changes and mortality),"[7]; AST-3424 groups 0.5, 1 mg/kg QD×5 and 2 mg/kg QW, no animal deaths, no apparent drug toxicity",well tolerated
same,TGI (%),[8]; [14],97.60%
same,mean tumor volume,"[8]; 1 mg/kg QD×5, 16 days off, QD×5, vehicle 1182.66",29.50 mm^3
same,TGI (%),[8]; [15],94.83%
same,mean tumor volume,[8]; [15],64.50 mm^3
same,tolerability (body weight changes and mortality),"[8]; AST-3424 groups 1 mg/kg QD×5 and 2 mg/kg QW, no animal deaths, no apparent drug toxicity",well tolerated
same,concentration at 8 h,[9],< 1 ng/mL
same,tumor clearance,[10]; [16],the tumor in one mouse was cleared
same,tolerability (body weight changes and mortality),[10]; [17],well tolerated
same,TGI (%),"[10]; day 29 after first administration, AST-3424 1 mg/kg QD×5, 16 days off, QD×5 (P < 0.001), ifosfamide 60 mg/kg QD×5/week for 2 weeks (p > 0.05)",95.62%
same,mean tumor volume,"[10]; day 29 after first administration, AST-3424 1 mg/kg QD×5, 16 days off, QD×5, ifosfamide 60 mg/kg QD×5/week for 2 weeks, negative control 2238.97",94.42 mm^3
same,confirmed best response stable disease,solid tumors,54%
same,tumor clearance,[11]; [16],the tumor in one mouse was cleared
same,tolerability (body weight changes and mortality),"[11]; 1 mg/kg QD×5, 2 cycles, no animal deaths, no apparent drug toxicity",well tolerated
same,TGI (%),"[11]; Day 36 after first administration, AST-3424 1 mg/kg QD×5, 16 days off, QD×5 (P < 0.001), ifosfamide 60 mg/kg QD×5/week for 2 weeks (no statistical difference)",80.78%
same,mean tumor volume,"[11]; Day 36 after first administration, AST-3424 1 mg/kg QD×5, 16 days off, QD×5, ifosfamide 60 mg/kg QD×5/week for 2 weeks, vehicle 977.46",186.08 mm^3
same,tolerability (body weight changes and mortality),[12]; [17],well tolerated
same,TGI (%),"[12]; day 32 after first administration, AST-3424 1 mg/kg QD×5, 16 days off, QD×5 (P < 0.001), ifosfamide 6.0 mg/kg QD×5/week for 2 weeks (p > 0.05)",78.56%
same,mean tumor volume,"[12]; day 32 after first administration, AST-3424 1 mg/kg QD×5, 16 days off, QD×5, ifosfamide 6.0 mg/kg QD×5/week for 2 weeks, vehicle 2276.68",503.91 mm^3
same,T1/2,"[13]; after intravenous OBI-3424, US patients, parent drug and metabolite",approximately 0.4 hours
same,pharmacokinetic characteristics,"[13]; doses ranging from 1 to 14 mg/m^2, minimal accumulation after repeated administration",linear pharmacokinetic characteristics
